Reference: patent US20240277795A1, “INHIBITORS OF CYSTEINE PROTEASES AND METHODS OF USE THEREOF” (Pardes Biosciences, Inc., priority 2021, published 2024)
Where two headings read alike, the source gives them in different places.

Experiments:
[1] = biological target: OC43 Mpro (Human coronavirus OC43, UniProt P0C6X6); experiment: OC43 Mpro enzymatic assay; type: biochemical, HCoV OC43
Experimental: (§1) Compounds were assayed using standard methods to assess compound activity and IC50. As an exemplary for assessment of the SARS-COV2 Mpro, the C-His6-tagged Mpro (NC_045512) was cloned, expressed in E. coli and purified. The assay buffer contained 20 mM of Tris-HCl (pH 7.3), 100 mM of NaCl, 1 mM of EDTA, 5 mM of TCEP and 0.1% BSA. The final concentrations of the Mpro protein and substrate were 25 nM and 25 μM, respectively, in the Mpro enzymatic assay. The Km of the Mpro substrate for the protease was 13.5 μM.
(§2) The compounds were added to an assay plate. For 100% inhibition control (HPE, hundred percent effect), 1 μM GC376 was added. For no inhibition control (ZPE, zero percent effect), no compound was added.
(§3) IC50 values of compounds were calculated with the GraphPad Prism software using the nonlinear regression model of log(inhibitor) vs. response—Variable slope (four parameters). The inhibition activity was calculated using the formula below, IC50 values is calculated using the Inhibition % data.
(§4) [formula] • #HEP: Hundred percent effect controls. Containing substrate+enzyme+1 μM GC376. • ZPE: Zero percent effective controls. Containing enzyme+substrate, no compound. • Sample: Compound activity testing wells. Containing compound+enzyme+substrate. • BG: Compound background control wells. Containing compound+substrate, no enzyme.

[2] = biological target: SARS-COV2 Mpro (Severe acute respiratory syndrome coronavirus 2, UniProt P0DTD1); experiment: COVID-19 (nCoV-2019, SARS-CoV2) Mpro enzymatic assay; type: biochemical; conditions: read-out: COVID-19 Mpro IC50
Experimental: as §1, with “assay.” for “assay. The Km of the Mpro substrate for the protease was 13.5 μM.”
The compounds were added to an assay plate. For 100% inhibition control (HPE, hundred percent effect), 1 μM GC376 was added.
as §3
[formula] • #HEP: Hundred percent effect controls. […] Containing enzyme+substrate, no compound. • Sample: Compound activity testing wells. Containing compound+enzyme+substrate. • BG: Compound background control wells. Containing compound+substrate, no enzyme.

[3] = biological target: 229E Mpro (Human coronavirus 229E, UniProt P0C6X1); experiment: 229E Mpro enzymatic assay; type: biochemical, HCoV 229E
Chain of 229E Mpro (P0C6X1 2966-3267): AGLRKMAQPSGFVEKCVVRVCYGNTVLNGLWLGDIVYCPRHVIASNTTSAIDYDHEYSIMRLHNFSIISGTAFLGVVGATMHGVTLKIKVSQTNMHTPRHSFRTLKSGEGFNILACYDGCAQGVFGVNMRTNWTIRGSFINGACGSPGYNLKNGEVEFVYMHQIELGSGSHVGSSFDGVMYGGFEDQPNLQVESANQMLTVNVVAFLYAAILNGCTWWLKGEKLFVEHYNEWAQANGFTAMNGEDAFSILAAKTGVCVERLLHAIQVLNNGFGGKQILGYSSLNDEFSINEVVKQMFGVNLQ
Experimental: as §1, §2, §3, §4

Chain of OC43 Mpro (P0C6X6 3247-3549): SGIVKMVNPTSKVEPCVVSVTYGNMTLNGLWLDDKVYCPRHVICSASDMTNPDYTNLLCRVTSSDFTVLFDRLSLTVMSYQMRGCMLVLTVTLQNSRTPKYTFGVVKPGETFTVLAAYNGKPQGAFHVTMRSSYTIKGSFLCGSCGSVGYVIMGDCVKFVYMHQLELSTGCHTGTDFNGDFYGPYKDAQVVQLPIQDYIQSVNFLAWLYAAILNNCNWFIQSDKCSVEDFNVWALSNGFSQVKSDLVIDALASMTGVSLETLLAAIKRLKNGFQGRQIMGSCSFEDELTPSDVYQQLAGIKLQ

## CC1(C)[C@@H]2[C@@H](C(=O)N[C@H](C#N)C[C@@H]3CC4(CC4)NC3=O)N(C(=O)C(NC(=O)C(F)(F)F)C3CCC3)C[C@@H]21 (single isomer, unassigned) [372 Isomer 2]
[1]; Table 3
  IC50: < 2000 nM
[2]; Table 3
  IC50: < 2000 nM
[3]; Table 3
  IC50: < 2000 nM

## CC(C)(C)[C@H](NC(=O)C1(CF)CC1(F)F)C(=O)N1C[C@H]2[C@@H]([C@H]1C(=O)N[C@H](C#N)C[C@@H]1CC3(CC3)NC1=O)C2(C)C (single isomer, unassigned) [292 Isomer 2]
[1]; Table 3
  IC50: < 2000 nM
[2]; Table 3
  IC50: < 2000 nM
[3]; Table 3
  IC50: < 2000 nM

## C[C@@H](OC(C)(C)C)[C@H](NC(=O)C(F)(F)F)C(=O)N1C[C@H]2[C@@H]([C@H]1C(=O)N[C@H](C#N)C[C@@H]1CCCNC1=O)C2(C)C [Compound 431, (1R, 2S, 5S)-3-((2S, 3R)-3-(tert-butoxy)-2-(2,2,2-trifluoroacetamido)butanoyl)-N—((S)-1-cyano-2-((S)-2-oxopiperidin-3-yl)ethyl)-6,6-dimethyl-3-azabicyclo[3.1.0]hexane-2-carboxamide]
[1]; Table 5
  IC50: < 2000 nM
[2]; Table 5
  IC50: < 2000 nM
[3]; Table 5
  IC50: < 2000 nM

## N#C[C@H](C[C@@H]1CCNC1=O)NC(=O)[C@H](CC1CC1)NC(=O)[C@H](Cc1ccc(F)cc1)NC(=O)c1cnccn1 [Compound 125]
[1]; Table 3
  IC50: < 2000 nM
[2]; Table 3
  IC50: 2000 to 10000 nM
[3]; Table 3
  IC50: < 2000 nM

## C[C@@H](OC1(C#N)CC1)[C@H](NC(=O)C(F)(F)F)C(=O)N1C[C@H]2[C@@H]([C@H]1C(=O)N[C@H](C#N)C[C@@H]1CC(C)(C)NC1=O)C2(C)C [Compound 334, (1R,2S,5S)-3-[(2S,3R)-3-(1-cyanocyclopropoxy)-2-[(2,2,2-trifluoroacetyl)amino]butanoyl]-N-[(1S)-1-cyano-2-[(3R)-5,5-dimethyl-2-oxo-pyrrolidin-3-yl]ethyl]-6,6-dimethyl-3-azabicyclo[3.1.0]hexane-2-carboxamide]
[1]; Table 5
  IC50: < 2000 nM
[2]; Table 5
  IC50: < 2000 nM
[3]; Table 5
  IC50: < 2000 nM

## C[C@@H](OC1(C2CC2)CC1)[C@H](NC(=O)C(F)(F)F)C(=O)N1C[C@H]2[C@@H]([C@H]1C(=O)N[C@H](C#N)C[C@@H]1CC(C)(C)NC1=O)C2(C)C [Compound 324, (1R,2S,5S)—N-[(1S)-1-cyano-2-[(3R)-5,5-dimethyl-2-oxo-pyrrolidin-3-yl]ethyl]-3-[(2S,3R)-3-(1-cyclopropylcyclopropoxy)-2-[(2,2,2-trifluoroacetyl)amino]butanoyl]-6,6-dimethyl-3-azabicyclo[3.1.0]hexane-2-carboxamide]
[1]; Table 3
  IC50: < 2000 nM
[2]; Table 3
  IC50: < 2000 nM
[3]; Table 3
  IC50: < 2000 nM

## C[C@@H](OC1(C2CC2)CC1)[C@H](NC(=O)C(F)(F)F)C(=O)N1C[C@H]2[C@@H]([C@H]1C(=O)N[C@H](C#N)C[C@@H]1CC3(CC3)NC1=O)C2(C)C [Compound 331, (1R,2S,5S)—N-[(1S)-1-cyano-2-[(6R)-5-oxo-4-azaspiro[2.4]heptan-6-yl]ethyl]-3-[(2S,3R)-3-(1-cyclopropylcyclopropoxy)-2-[(2,2,2-trifluoroacetyl)amino]butanoyl]-6,6-dimethyl-3-azabicyclo[3.1.0]hexane-2-carboxamide]
[1]; Table 3
  IC50: < 2000 nM
[2]; Table 3
  IC50: < 2000 nM
[3]; Table 3
  IC50: < 2000 nM

## CO[C@H](C)[C@H](NC(=O)C(F)(F)F)C(=O)N1C[C@H]2[C@@H]([C@H]1C(=O)N[C@H](C#N)C[C@@H]1CC(C)(C)NC1=O)C2(C)C [Compound 290, (1R,2S,5S)-N—((S)-1-cyano-2-((R)-5,5-dimethyl-2-oxopyrrolidin-3-yl)ethyl)-3-((2S,3R)-3-methoxy-2-(2,2,2-trifluoroacetamido)butanoyl)-6,6-dimethyl-3-azabicyclo[3.1.0]hexane-2-carboxamide]
[1]; Table 5
  IC50: < 2000 nM
[2]; Table 5
  IC50: < 2000 nM
[3]; Table 5
  IC50: < 2000 nM

## C[C@@H](OCC(F)(F)F)[C@H](NC(=O)C(F)(F)F)C(=O)N1C[C@H]2[C@@H]([C@H]1C(=O)N[C@H](C#N)C[C@@H]1CC(C)(C)NC1=O)C2(C)C [Compound 312, (1R,2S,5S)—N-[(1S)-1-cyano-2-[(3R)-5,5-dimethyl-2-oxo-pyrrolidin-3-yl]ethyl]-6,6-dimethyl-3-[(2S,3R)-2-[(2,2,2-trifluoroacetyl)amino]-3-(2,2,2-trifluoroethoxy)butanoyl]-3-azabicyclo[3.1.0]hexane-2-carboxamide]
[1]; Table 5
  IC50: < 2000 nM
[2]; Table 5
  IC50: < 2000 nM
[3]; Table 5
  IC50: < 2000 nM

## CC(C)(C)[C@H](NC(=O)OC1CC(F)(F)C1(F)F)C(=O)N1C[C@H]2[C@@H]([C@H]1C(=O)N[C@H](C#N)C[C@@H]1CC3(CC3)NC1=O)C2(C)C (single isomer, unassigned) [273 Isomer 2]
[1]; Table 3
  IC50: < 2000 nM
[2]; Table 3
  IC50: < 2000 nM
[3]; Table 3
  IC50: < 2000 nM

## CC(C)(C)[C@H](N)C(=O)N1C[C@H]2[C@@H]([C@H]1C(=O)N[C@H](C#N)C[C@@H]1CC3(CC3)NC1=O)C2(C)C [Compound 235, (1R,2S,5S)-3-((S)-2-amino-3,3-dimethylbutanoyl)-N—((S)-1-cyano-2-((R)-5-oxo-4-azaspiro[2.4]heptan-6-yl)ethyl)-6,6-dimethyl-3-azabicyclo[3.1.0]hexane-2-carboxamide]
[1]; Table 3
  IC50: < 2000 nM
[2]; Table 3
  IC50: < 2000 nM
[3]; Table 3
  IC50: < 2000 nM

## COC(C)(C)[C@H](NC(=O)C(F)(F)F)C(=O)N1C[C@H]2[C@@H]([C@H]1C(=O)N[C@H](C#N)C[C@@H]1CC3(CC3)NC1=O)C2(C)C (single isomer, unassigned) [Compound 284]
[1]; Table 5
  IC50: < 2000 nM
[2]; Table 5
  IC50: < 2000 nM
[3]; Table 5
  IC50: 10000 to 30000 nM

## C[C@@H](OC1(C)CC1)[C@H](NC(=O)C(F)(F)F)C(=O)N1C[C@H]2[C@@H](C1C(=O)N[C@H](C#N)C[C@@H]1CC(C)(C)NC1=O)C2(C)C (single isomer, unassigned) [Compound 299a]
[1]; Table 5
  IC50: < 2000 nM
[2]; Table 5
  IC50: < 2000 nM
[3]; Table 5
  IC50: < 2000 nM

## C[C@@H](OC(C)(C)C)[C@H](NC(=O)C(F)(F)F)C(=O)N1C[C@H]2[C@@H]([C@H]1C(=O)N[C@H](C#N)C[C@@H]1CC(C)(C)NC1=O)C2(C)C [Compound 285, (1RSS)-3-[(2S,3R)-3-tert-butoxy-2-[(2,2,2-trifluoroacetyl)amino]butanoyl]-N-[(1S)-1-cyano-2-[(3R)-5,5-dimethyl-2-oxo-pyrrolidin-3-yl]ethyl]-6,6-dimethyl-3-azabicyclo[3.1.0]hexane-2-carboxamide]
[1]; Table 3
  IC50: < 2000 nM
[2]; Table 3
  IC50: < 2000 nM
[3]; Table 3
  IC50: < 2000 nM

## C[C@@H](OC1CCC1)[C@H](NC(=O)C(F)(F)F)C(=O)N1C[C@H]2[C@@H]([C@H]1C(=O)N[C@H](C#N)C[C@@H]1CC3(CC3)NC1=O)C2(C)C [Compound 327, (1R,2S,5S)—N-[(1S)-1-cyan-2-[(6R)-5-oxo-4-azaspiro[2.4]heptan-6-yl]ethyl]-3-[(2S,3R)-3-(cyclobutoxy)-2-[(2,2,2-trifluoroacetyl)amino]butanoyl]-6,6-dimethyl-3-azabicyclo[3.1.0]hexane-2-carboxamide]
[1]; Table 5
  IC50: < 2000 nM
[2]; Table 5
  IC50: < 2000 nM
[3]; Table 5
  IC50: < 2000 nM

## CC1(C)CCC(C[C@@H](C#N)NC(=O)[C@@H]2[C@@H]3[C@H](CN2C(=O)[C@@H](NC(=O)C(F)(F)F)C(C)(C)C)C3(C)C)C(=O)N1 (stereo partly drawn) [Compound 361, (1R,5S)—N-[(1S)-1-cyano-2-(6,6-dimethyl-2-oxo-3-piperidyl)ethyl]-3-[(2S)-3,3-dimethyl-2-[(2,2,2-trifluoroacetyl)amino]butanoyl]-6,6-dimethyl-3-azabicyclo[3.1.0]hexane-2-carboxamide]
[1]; Table 3
  IC50: < 2000 nM
[2]; Table 3
  IC50: < 2000 nM
[3]; Table 3
  IC50: 10000 to 30000 nM

## C[C@@H](OC(C)(C)C(F)(F)F)[C@H](NC(=O)C(F)(F)F)C(=O)N1C[C@H]2[C@@H]([C@H]1C(=O)N[C@H](C#N)C[C@@H]1CC(C)(C)NC1=O)C2(C)C [Compound 357, (1R,2S,5S)—N-[(1S)-1-cyano-2-[(3R)-5,5-dimethyl-2-oxo-pyrrolidin-3-yl]ethyl]-6,6-dimethyl-3-[(2S,3R)-2-[(2,2,2-trifluoroacetyl)amino]-3-(2,2,2-trifluoro-1,1-dimethyl-ethoxy)butanoyl]-3-azabicyclo[3.1.0]hexane-2-carboxamide]
[1]; Table 5
  IC50: < 2000 nM
[2]; Table 5
  IC50: < 2000 nM
[3]; Table 5
  IC50: < 2000 nM

## CC(C)(C)[C@H](NC(=O)C(F)(F)F)C(=O)N1C[C@H]2[C@@H]([C@H]1C(=O)N[C@H](C#N)C[C@@H]1CC3(CCC3)NC1=O)C2(C)C [Compound 362, (1R,2S,5S)—N-[(1S)-1-cyano-2-[(7R)-6-oxo-5-azaspiro[3.4]octan-7-yl]ethyl]-3-[(2S)-3,3-dimethyl-2-[(2,2,2-trifluoroacetyl)amino]butanoyl]-6,6-dimethyl-3-azabicyclo[3.1.0]hexane-2-carboxamide]
[1]; Table 3
  IC50: < 2000 nM
[2]; Table 3
  IC50: < 2000 nM
[3]; Table 3
  IC50: < 2000 nM
